Data taken from patent US20100048534A1, “CRYSTALLINE LESTAURTINIB HYDRATES AND CRYSTALLINE LESTAURTINIB HEMIHYDRATE HEMIACETONITRILEATE AND CRYSTALLINE LESTAURTINIB HEMIHYDRATE HEMITETRAHYDROFURANATE” (priority 2005, published 2010).

Experiment: Solid-state stability and moisture sorption versus relative humidity (dynamic moisture sorption gravimetry, DMSG)
Assay type: physicochemical

## C[C@]12O[C@H](C[C@]1(O)CO)n1c3ccccc3c3c4c(c5c6ccccc6n2c5c31)CNC4=O [Crystalline lestaurtinib anhydrate, lestaurtinib anhydrate]
25° C., between 0% and 5% RH, w/w
  water content of solid-state phase by DMSG: less than 0.5%
Ambient temperature, above 5% RH
  behaviour above 5% RH: absorbs moisture above 5% RH to form crystalline lestaurtinib monohydrate
